This assay has as its target T1, MMP-13CD (Homo sapiens, UniProt P45452).
T1 construct: expression of MMP-13 catalytic domain (“MMP-13CD”) in E. coli typically produces a pro form of the enzyme; A-S- dipeptide left from the M-A-S- expression leader (mPro-MMP-13CD); removed by autolysis (N, cleaved yes); made in house
The assay is described as follows: Autolysis of mPro-MMP-13CD / MMP-13CD after addition of a zinc ligand, followed by MALDI-MS. Type of assay: biochemical. The note with it: added to modified pro form A-S-MMP-13CD. The protocol: A 1 mL aliquot of the solution obtained in Preparation 3 was thawed and purified by addition of 100 μL of hydroxamic acid to give a solution of purified MMP-13CD, and the solution was stored at 4° C.
Matrix-Assisted Laser Desorption/Ionization Mass Spectrometry (“MALDI”): MALDI mass spectra were acquired on a Bruker Daltonics, Inc (Billerika, Mass.) Reflex-III time-of-flight mass spectrometer operating in linear mode. The instrument has a 3.3-meter flight tube and an adjustable accelerating voltage up to 23 kV in Delayed Extraction mode. Radiation from a Laser Science, Inc. (Newton, Mass.) nitrogen laser (337 nm, 3-nanosecond pulse width) was used to desorb ions from the target. All linear delayed-extraction experiments were performed using an operating voltage of 23.0 kV, an extraction grid voltage of 20.0 kV, a focus voltage of 16.8 kV, and a lens voltage of 9.001 kV. Twenty-five to one hundred-fifty laser shots were averaged for each spectrum with a 5-point Savitsky-Golay smooth applied. […]
Samples of protein were then analyzed by MALDI-MS every day for 5 days. […] The flash-frozen material was stored, then thawed and immediately analyzed. […] The relative peak heights were calculated by dividing the a.i. value for MMP-13CD at m/z 18923 by the a.i. value for the particular impurity. […]

As for `CC(=O)NO` [acetohydroxamic acid], the “effect on autolysis of MMP-13CD” value is “stabilizes the resulting mature MMP-13CD itself against autolysis”.

The record behind these values is patent US20030099632A1, “Method for preparing a purified matrix metalloproteinase” (priority 2001, published 2003).
